Results from ChEMBL document CHEMBL2440076, “New triarylpyrazoles as broad-spectrum anticancer agents: design, synthesis, and biological evaluation” (Eur J Med Chem, 2013).

What was measured:
Format in all cases: functional
PC-3 [1] = experiment: Growth inhibition of human PC3 cells assessed as cell growth at 5X10'-6 M after 48 hrs by sulforhodamine B assay; conditions: PC-3, 48 h, read-out: Activity
PC-3 [2] = experiment: Growth inhibition of human PC3 cells assessed as cell growth at 5X10'-7 M after 48 hrs by sulforhodamine B assay; conditions: PC-3, 48 h, read-out: Activity
MOLT-4 = experiment: Growth inhibition of human MOLT4 cells assessed as cell growth at 5X10'-6 M after 48 hrs by sulforhodamine B assay; conditions: MOLT-4, 48 h, read-out: Activity
UACC-257 [3] = experiment: Growth inhibition of human UACC257 cells assessed as cell growth at 5X10'-6 M after 48 hrs by sulforhodamine B assay; conditions: UACC-257, 48 h, read-out: Activity
NCI-H522 = experiment: Growth inhibition of human NCI-H522 cells assessed as cell growth at 5X10'-9 M after 48 hrs by sulforhodamine B assay; conditions: NCI-H522, 48 h, read-out: Activity
OVCAR-5 [4] = experiment: Growth inhibition of human OVCAR5 cells assessed as cell growth at 5X10'-6 M after 48 hrs by sulforhodamine B assay; conditions: OVCAR-5, 48 h, read-out: Activity
MDA-MB-435 = experiment: Growth inhibition of human MDA-MB-435 cells assessed as cell growth at 5X10'-5 M after 48 hrs by sulforhodamine B assay; conditions: MDA-MB-435, 48 h, read-out: Activity
NCI-H322M = experiment: Growth inhibition of human NCI-H322M cells assessed as cell growth at 5X10'-8 M after 48 hrs by sulforhodamine B assay; conditions: read-out: Activity
U-251 = experiment: Growth inhibition of human U251 cells assessed as cell growth at 5X10'-7 M after 48 hrs by sulforhodamine B assay; conditions: U-251, 48 h, read-out: Activity
UACC-62 [5] = experiment: Growth inhibition of human UACC62 cells assessed as cell growth at 5X10'-9 M after 48 hrs by sulforhodamine B assay; conditions: UACC-62, 48 h, read-out: Activity
HL-60(TB) = experiment: Growth inhibition of human HL-60(TB) cells assessed as cell growth at 5X10'-9 M after 48 hrs by sulforhodamine B assay; conditions: HL-60, 48 h, read-out: Activity
KM12 = experiment: Growth inhibition of human KM12 cells assessed as cell growth at 5X10'-8 M after 48 hrs by sulforhodamine B assay; conditions: KM12, 48 h, read-out: Activity
[6] = Growth inhibition of human NCI-ADR-RES cells assessed as cell growth at 5X10'-9 M after 48 hrs by sulforhodamine B assay; conditions: read-out: Activity
HCT-116 = experiment: Growth inhibition of human HCT116 cells assessed as cell growth at 5X10'-8 M after 48 hrs by sulforhodamine B assay; conditions: HCT-116, 48 h, read-out: Activity
RPMI-8226 [7] = experiment: Growth inhibition of human RPMI8226 cells assessed as cell growth at 5X10'-7 M after 48 hrs by sulforhodamine B assay; conditions: RPMI-8226, 48 h, read-out: Activity
UACC-257 [8] = experiment: Growth inhibition of human UACC257 cells assessed as cell growth at 5X10'-7 M after 48 hrs by sulforhodamine B assay; conditions: UACC-257, 48 h, read-out: Activity
SR = experiment: Growth inhibition of human SR cells assessed as cell growth at 5X10'-5 M after 48 hrs by sulforhodamine B assay; conditions: read-out: Activity
[9] = Growth inhibition of human Hs 578T cells assessed as cell growth at 5X10'-7 M after 48 hrs by sulforhodamine B assay; conditions: read-out: Activity
NCI-H226 = experiment: Growth inhibition of human NCI-H226 cells assessed as cell growth at 5X10'-7 M after 48 hrs by sulforhodamine B assay; conditions: NCI-H226, 48 h, read-out: Activity
SF-295 = experiment: Growth inhibition of human SF295 cells assessed as cell growth at 5X10'-8 M after 48 hrs by sulforhodamine B assay; conditions: SF-295, 48 h, read-out: Activity
HOP-92 = experiment: Growth inhibition of human HOP92 cells assessed as cell growth at 5X10'-9 M after 48 hrs by sulforhodamine B assay; conditions: HOP-92, 48 h, read-out: Activity
SN12C = experiment: Growth inhibition of human SN12C cells assessed as cell growth at 5X10'-5 M after 48 hrs by sulforhodamine B assay; conditions: read-out: Activity
HCT-15 = experiment: Growth inhibition of human HCT15 cells assessed as cell growth at 5X10'-8 M after 48 hrs by sulforhodamine B assay; conditions: HCT-15, 48 h, read-out: Activity
SK-MEL-5 = experiment: Growth inhibition of human SK-MEL-5 cells assessed as cell growth at 5X10'-6 M after 48 hrs by sulforhodamine B assay; conditions: SK-MEL-5, 48 h, read-out: Activity
DU-145 = experiment: Growth inhibition of human DU145 cells assessed as cell growth at 5X10'-8 M after 48 hrs by sulforhodamine B assay; conditions: DU-145, 48 h, read-out: Activity
UACC-62 [10] = experiment: Growth inhibition of human UACC62 cells assessed as cell growth at 5X10'-5 M after 48 hrs by sulforhodamine B assay; conditions: UACC-62, 48 h, read-out: Activity
UO-31 = experiment: Growth inhibition of human UO31 cells assessed as cell growth at 5X10'-7 M after 48 hrs by sulforhodamine B assay; conditions: UO-31, 48 h, read-out: Activity
RPMI-8226 [11] = experiment: Growth inhibition of human RPMI8226 cells assessed as cell growth at 5X10'-5 M after 48 hrs by sulforhodamine B assay; conditions: RPMI-8226, 48 h, read-out: Activity
TK-10 = experiment: Growth inhibition of human TK10 cells assessed as cell growth at 5X10'-6 M after 48 hrs by sulforhodamine B assay; conditions: TK-10, 48 h, read-out: Activity
UACC-257 [12] = experiment: Growth inhibition of human UACC257 cells assessed as cell growth at 5X10'-8 M after 48 hrs by sulforhodamine B assay; conditions: UACC-257, 48 h, read-out: Activity
CCRF-CEM = experiment: Growth inhibition of human CCRF-CEM cells assessed as cell growth at 5X10'-5 M after 48 hrs by sulforhodamine B assay; conditions: read-out: Activity
OVCAR-5 [13] = experiment: Growth inhibition of human OVCAR5 cells assessed as cell growth at 5X10'-9 M after 48 hrs by sulforhodamine B assay; conditions: OVCAR-5, 48 h, read-out: Activity
SF-539 = experiment: Growth inhibition of human SF539 cells assessed as cell growth at 5X10'-6 M after 48 hrs by sulforhodamine B assay; conditions: SF-539, 48 h, read-out: Activity
BT-549 = experiment: Growth inhibition of human BT549 cells assessed as cell growth at 5X10'-7 M after 48 hrs by sulforhodamine B assay; conditions: BT-549, 48 h, read-out: Activity
SK-MEL-28 = experiment: Growth inhibition of human SK-MEL-28 cells assessed as cell growth at 5X10'-6 M after 48 hrs by sulforhodamine B assay; conditions: SK-MEL-28, 48 h, read-out: Activity
A498 = experiment: Growth inhibition of human A498 cells assessed as cell growth at 5X10'-7 M after 48 hrs by sulforhodamine B assay; conditions: A498, 48 h, read-out: Activity

With `COc1cc(-c2nn(-c3cccc(NC(=O)c4cccc(C(F)(F)F)c4)c3)cc2-c2ccncc2)ccc1Cl` the growth at 5 µM (PC-3 [1]) was 17%, the growth at 0.5 µM (PC-3 [2]) was 71% and the growth at 5 µM (MOLT-4) was 23%. It also gave a growth at 5 µM (UACC-257 [3]) of 56%, a growth at 0.005 µM (NCI-H522) of 95% and a growth at 5 µM (OVCAR-5 [4]) of 46%. It also gave a growth at 50 µM (MDA-MB-435) of -37%, a growth at 0.05 µM (NCI-H322M) of 88% and a growth at 0.5 µM (U-251) of 88%. It also gave a growth at 0.005 µM (UACC-62 [5]) of 97%, a growth at 0.005 µM (HL-60(TB)) of 89% and a growth at 0.05 µM (KM12) of 95%. For the same molecule, the growth at 0.005 µM [6] was 96%, the growth at 0.05 µM (HCT-116) was 96% and the growth at 0.5 µM (RPMI-8226 [7]) was 88%. The growth at 0.5 µM (UACC-257 [8]) was 87%, the growth at 50 µM (SR) was -2% and the growth at 0.5 µM [9] was 74%. For the same molecule, the growth at 0.5 µM (NCI-H226) was 84%, the growth at 0.05 µM (SF-295) was 95% and the growth at 0.005 µM (HOP-92) was 90%. It also gave a growth at 50 µM (SN12C) of 24%, a growth at 0.05 µM (HCT-15) of 96% and a growth at 5 µM (SK-MEL-5) of -38%. For the same molecule, the growth at 0.05 µM (DU-145) was 95%, the growth at 50 µM (UACC-62 [10]) was 13% and the growth at 0.5 µM (UO-31) was 62%. For the same molecule, the growth at 50 µM (RPMI-8226 [11]) was -4%, the growth at 5 µM (TK-10) was 36% and the growth at 0.05 µM (UACC-257 [12]) was 99%. The growth at 50 µM (CCRF-CEM) was 4%, the growth at 0.005 µM (OVCAR-5 [13]) was 95% and the growth at 5 µM (SF-539) was -41%. For the same molecule, the growth at 0.5 µM (BT-549) was 102%, the growth at 5 µM (SK-MEL-28) was 34% and the growth at 0.5 µM (A498) was 61%.
